# According to patent publication US20230338337A1, “BIOMARKERS FOR CANCER THERAPY USING MDM2 ANTAGONISTS” (OTSUKA PHARMACEUTICAL CO., LTD., priority 2019, published 2023):
# Tested on: SJSA-1
# Assay: Protocol B: CellTiter-Glo cell viability assay
# Settings: read-out: SJSA1 IC50 (μM) (Protocol B); Protocol B
row,IC50 [µM],Compound
1,0.22,"1-({[(1R)-1-(4-chlorophenyl)-2-[(5-chloropyrimidin-2-yl)methyl]-7-fluoro-5-[1-hydroxy-1-(1-methyl-1H-pyrazol-4-yl)ethyl]-3-oxo-2,3-dihydro-1H-isoindol-1-yl]oxy}methyl)cyclopropane-1-carboxamide [Example 214]"
2,0.76,"1-({[(1R)-1-(4-chlorophenyl)-2-[(5-chloropyrimidin-2-yl)methyl]-7-fluoro-5-[2-hydroxy-1-(piperazin-1-yl)butan-2-yl]-3-oxo-2,3-dihydro-1H-isoindol-1-yl]oxy}methyl)cyclopropane-1-carbonitrile [Example 537]"
3,0.45,"1-({[(1R)-1-(4-chlorophenyl)-7-fluoro-2-[(5-fluoropyridin-2-yl)methyl]-5-[1-hydroxy-1-(1-methyl-1H-pyrazol-4-yl)ethyl]-3-oxo-2,3-dihydro-1H-isoindol-1-yl]oxy}methyl)cyclopropane-1-carboxamide [Example 209]"
4,4.9,"2-{[(1R)-1-(4-chlorophenyl)-7-fluoro-5-[1-hydroxy-1-(1-methyl-1H-imidazol-4-yl)propyl]-3-oxo-1-{[trans-3-hydroxycyclobutyl]methoxy}-2,3-dihydro-1H-isoindol-2-yl]methyl}pyrimidine-5-carbonitrile [Example 484]"
5,0.64,"5-chloro-2-{[(1R)-1-(4-chlorophenyl)-7-fluoro-5-[(1R)-1-(4-fluorooxan-4-yl)-1-hydroxypropyl]-1-methoxy-3-oxo-2,3-dihydro-1H-isoindol-2-yl]methyl}pyridine-3-carboxylic acid (tris(hydroxymethyl)aminomethane salt) [Example 514]"
6,0.36,"6-{[(1R)-1-(4-chlorophenyl)-1-[(1-cyanocyclopropyl)methoxy]-7-fluoro-5-[1-hydroxy-1-(1-methyl-1H-pyrazol-4-yl)ethyl]-3-oxo-2,3-dihydro-1H-isoindol-2-yl]methyl}pyridine-3-carbonitrile [Example 211]"
7,0.41,"(3R)-2-[(5-chloro-1-oxo-1λ^5-pyridin-2-yl)methyl]-3-(4-chlorophenyl)-4-fluoro-6-[1-hydroxy-1-(1-methyl-1H-pyrazol-4-yl)ethyl]-3-[(1-hydroxycyclopropyl)methoxy]-2,3-dihydro-1H-isoindol-1-one [Example 409]"

row,Compound,IC50 [µM]
1,"6-{[1-(4-chlorophenyl)-7-fluoro-5-[1-hydroxy-1-(1-methyl-1H-pyrazol-4-yl)ethyl]-3-oxo-1-[cis-3-hydroxycyclobutoxy]-2,3-dihydro-1H-isoindol-2-yl]methyl}pyridine-3-carbonitrile [Example 355]",4.7
2,"6-{[1-(4-chlorophenyl)-7-fluoro-5-[1-hydroxy-1-(1-methyl-1H-pyrazol-4-yl)ethyl]-3-oxo-1-[cis-3-hydroxycyclobutoxy]-2,3-dihydro-1H-isoindol-2-yl]methyl}pyridine-3-carbonitrile [Example 356]",0.96
3,"CCC(O)(c1cc(F)c2c(c1)C(=O)N(Cc1ncc(C#N)cn1)[C@@]2(O[C@H]1CCOC1)c1ccc(Cl)cc1)c1cn(C)cn1 (stereo partly drawn) [Example 369, 2-{[(1R)-1-(4-chlorophenyl)-7-fluoro-5-[1-hydroxy-1-(1-methyl-1H-imidazol-4-yl)propyl]-3-oxo-1-[(3S)-oxolan-3-yloxy]-2,3-dihydro-1H-isoindol-2-yl]methyl}pyrimidine-5-carbonitrile]",0.062
4,"[2H]C([2H])([2H])C1(C([2H])([2H])O[C@]2(c3ccc(Cl)cc3)c3c(F)cc(C(O)(CC)c4cn(C)cn4)cc3C(=O)N2Cc2ccc(C#N)cn2)CC1 (stereo partly drawn) [Example 439, 6-{[(1R)-1-(4-chlorophenyl)-7-fluoro-1-({1-[hydroxy(^2H2)methyl]cyclopropyl}(^2H2)methoxy)-5-[1-hydroxy-1-(1-methyl-1H-imidazol-4-yl)propyl]-3-oxo-2,3-dihydro-1H-isoindol-2-yl]methyl}pyridine-3-carbonitrile]",0.03

# Same assay, conditions: read-out: SJSA1 IC50 (μM) (Protocol B); SJSA-1, CellTiter-Glo, 72 hrs
row,IC50 [µM],Compound
1,1,"1-({[(1R)-2-[(4-chloro-2-methanesulfonylphenyl)methyl]-1-(4-chlorophenyl)-7-fluoro-5-[1-hydroxy-1-(1-methyl-1H-pyrazol-4-yl)ethyl]-3-oxo-2,3-dihydro-1H-isoindol-1-yl]oxy}methyl)cyclopropane-1-carboxamide [Example 74]"
2,0.084,"4-{[(1R)-1-(4-chlorophenyl)-7-fluoro-5-[1-hydroxy-1-(1-methyl-1H-imidazol-4-yl)propyl]-3-oxo-1-[(3S)-oxolan-3-yloxy]-2,3-dihydro-1H-isoindol-2-yl]methyl}-3-(hydroxymethyl)benzonitrile [Example 92]"

# Biological target: MDM2-p53 interaction (in vitro translated MDM2) (Homo sapiens (Human), UniProt Q00987)
# Assay: MDM2-p53 interaction 96-well plate binding assay (ELISA)
# Settings: not given
# Chain of MDM2-p53 interaction (in vitro translated MDM2) (Q00987 whole entry): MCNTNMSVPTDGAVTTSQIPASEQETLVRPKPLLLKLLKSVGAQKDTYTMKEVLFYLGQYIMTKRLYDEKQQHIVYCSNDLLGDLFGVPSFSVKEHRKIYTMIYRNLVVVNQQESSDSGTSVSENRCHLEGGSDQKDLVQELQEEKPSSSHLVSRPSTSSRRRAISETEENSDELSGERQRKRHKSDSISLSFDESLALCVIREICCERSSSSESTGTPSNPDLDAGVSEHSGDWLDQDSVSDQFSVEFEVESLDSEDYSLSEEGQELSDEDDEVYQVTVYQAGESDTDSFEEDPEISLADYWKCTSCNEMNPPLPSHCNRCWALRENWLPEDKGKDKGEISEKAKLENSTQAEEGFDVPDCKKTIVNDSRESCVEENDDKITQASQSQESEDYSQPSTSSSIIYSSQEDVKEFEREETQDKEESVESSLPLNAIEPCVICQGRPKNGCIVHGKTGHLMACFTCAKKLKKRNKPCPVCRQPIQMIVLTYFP
row,MDM2 % at concentration [%@0.0010],Compound
1,74,"6-{[(1R)-1-(4-chlorophenyl)-7-fluoro-5-[1-hydroxy-1-(1-methyl-1H-pyrazol-4-yl)propyl]-3-oxo-1-[(3S)-oxolan-3-yloxy]-2,3-dihydro-1H-isoindol-2-yl]methyl}pyridine-3-carbonitrile [Example 358]"

# Same assay, conditions: at 0.0010 μM
row,MDM2 % inhibition at 0.0010 [%@0.0010],Compound
1,94,"1-({[(1R)-1-(4-chlorophenyl)-2-[(5-chloropyrimidin-2-yl)methyl]-7-fluoro-5-[1-(4-fluoropiperidin-4-yl)-1-hydroxypropyl]-3-oxo-2,3-dihydro-1H-isoindol-1-yl]oxy}methyl)cyclopropane-1-carbonitrile [Example 545]"
2,64,"1-({[(1R)-1-(4-chlorophenyl)-2-[(5-chloropyrimidin-2-yl)methyl]-7-fluoro-5-[2-hydroxy-1-(piperazin-1-yl)butan-2-yl]-3-oxo-2,3-dihydro-1H-isoindol-1-yl]oxy}methyl)cyclopropane-1-carbonitrile [Example 536]"
3,76,"2-[(5-chloro-3-hydroxypyridin-2-yl)methyl]-3-(4-chlorophenyl)-4-fluoro-6-[(1S)-1-hydroxy-1-(1-methylpiperidin-4-yl)propyl]-3-[(3S)-oxolan-3-yloxy]-2,3-dihydro-1H-isoindol-1-one [Example 568]"
4,87,"2-{[(1R)-1-(4-chlorophenyl)-7-fluoro-5-{1-hydroxy-1-[trans-4-hydroxycyclohexyl]propyl}-3-oxo-1-[(3S)-oxolan-3-yloxy]-2,3-dihydro-1H-isoindol-2-yl]methyl}pyrimidine-5-carbonitrile [Example 503]"
5,86,"6-{[(1R)-1-(4-chlorophenyl)-7-fluoro-5-[1-(4-fluoropiperidin-4-yl)-1-hydroxypropyl]-3-oxo-1-[(3S)-oxolan-3-yloxy]-2,3-dihydro-1H-isoindol-2-yl]methyl}pyridine-3-carbonitrile [Example 546]"
6,85,"(3R)-3-(4-chlorophenyl)-2-[(5-chloropyridin-2-yl)methyl]-4-fluoro-6-[1-(4-fluoropiperidin-4-yl)-1-hydroxypropyl]-3-[(2R)-2-hydroxypropoxy]-2,3-dihydro-1H-isoindol-1-one [Example 549]"
7,72,"(3R)-3-(4-chlorophenyl)-2-[(5-chloropyrimidin-2-yl)methyl]-4-fluoro-6-{1-hydroxy-1-[trans-4-hydroxycyclohexyl]propyl}-3-methoxy-2,3-dihydro-1H-isoindol-1-one [Example 511]"

row,Compound,MDM2 % inhibition at 0.0010 [%@0.0010]
1,"2-{[(1R)-1-(4-chlorophenyl)-7-fluoro-5-[(1R)-1-(4-fluorooxan-4-yl)-1-hydroxypropyl]-3-oxo-1-[cis-3-hydroxycyclobutoxy]-2,3-dihydro-1H-isoindol-2-yl]methyl}pyrimidine-5-carbonitrile [Example 505]",60
2,"(3R)-3-(4-chlorophenyl)-2-[(5-chloropyrimidin-2-yl)methyl]-4-fluoro-6-[(1S)-1-hydroxy-1-(1-methylpiperidin-4-yl)propyl]-3-[cis-3-hydroxycyclobutoxy]-2,3-dihydro-1H-isoindol-1-one [Example 560]",30

# Same assay, conditions: at 0.010 μM
row,MDM2 % at concentration [%@0.010],Compound
1,61,"(3R)-3-(4-chlorophenyl)-4-fluoro-6-[1-hydroxy-1-(1-methyl-1H-pyrazol-4-yl)ethyl]-3-[(1-hydroxycyclopropyl)methoxy]-2-[(5-methoxypyridin-2-yl)methyl]-2,3-dihydro-1H-isoindol-1-one [Example 228]"

# Same assay, conditions: at 0.030 μM
row,MDM2 % at concentration [%@0.030],Compound
1,49,"(3R)-3-(4-Chlorophenyl)-2-[(1R)-1-(5-chloropyridin-2-yl)-2,3-dihydroxypropyl]-4-fluoro-3-[(1-hydroxycyclopropyl)methoxy]-6-(2-hydroxypropan-2-yl)-2,3-dihydro-1H-isoindol-1-one [Example 331]"

# Same assay, conditions: at 0.10 μM
row,MDM2 % inhibition at 0.10 [%@0.10],Compound
1,73,"2-{[(1R)-1-(4-chlorophenyl)-1-[(1-cyanocyclopropyl)methoxy]-7-fluoro-5-[1-hydroxy-1-(1-methyl-1H-imidazol-4-yl)propyl]-3-oxo-2,3-dihydro-1H-isoindol-2-yl]methyl}pyrimidine-5-carbonitrile [Example 463]"
2,44,"6-{[(1R)-1-(4-chlorophenyl)-7-fluoro-5-[1-hydroxy-1-(1-methyl-1H-imidazol-4-yl)butyl]-3-oxo-1-[(3S)-oxolan-3-yloxy]-2,3-dihydro-1H-isoindol-2-yl]methyl}pyridine-3-carbonitrile [Example 473]"
3,57,"(3R)-3-(4-chlorophenyl)-2-[(5-chloropyrimidin-2-yl)methyl]-4-fluoro-6-[(1R)-1-hydroxy-1-(1-methylpiperidin-4-yl)propyl]-3-[(3S)-oxolan-3-yloxy]-2,3-dihydro-1H-isoindol-1-one [Example 567]"

row,Compound,MDM2 % inhibition at 0.10 [%@0.10]
1,"(3R)-2-[(5-chloro-3-hydroxypyridin-2-yl)methyl]-3-(4-chlorophenyl)-4-fluoro-6-[1-hydroxy-1-(1-methyl-1H-imidazol-4-yl)propyl]-3-[cis-3-hydroxycyclobutoxy]-2,3-dihydro-1H-isoindol-1-one [Example 488]",56
